The source of these data is PMC8550792, “Evolution of kinase polypharmacology across HSP90 drug discovery” (Cell Chemical Biology, 2021).

What all share (test): biochemical
Common to all, as to format: biochemical

For assay [1], the target named is T1, 382 unique human kinases (Homo sapiens, UniProt O00311).
T1 construct: purchased Reaction Biology (HotSpot contract assay)
To be noted: kinase CDC7/DBF4, compound 10 uM; for remaining activity at 10 µM: read-out: % Enzyme Activity (relative to DMSO controls).

Assay [2] addresses T2, 382 unique human kinases (Homo sapiens, UniProt P00533, A750P/DEL747-749).
T2 construct: purchased Reaction Biology (HotSpot contract assay)
To be noted: EGFR (d747-749/A750P), 10 uM; for remaining activity at 10 µM: read-out: % Enzyme Activity (relative to DMSO controls).

Assay [3] has as its target T3, 382 unique human kinases (Homo sapiens, UniProt Q8WTQ7).
T3 construct: purchased Reaction Biology (HotSpot contract assay)
T3 sequence (Q8WTQ7 1-553): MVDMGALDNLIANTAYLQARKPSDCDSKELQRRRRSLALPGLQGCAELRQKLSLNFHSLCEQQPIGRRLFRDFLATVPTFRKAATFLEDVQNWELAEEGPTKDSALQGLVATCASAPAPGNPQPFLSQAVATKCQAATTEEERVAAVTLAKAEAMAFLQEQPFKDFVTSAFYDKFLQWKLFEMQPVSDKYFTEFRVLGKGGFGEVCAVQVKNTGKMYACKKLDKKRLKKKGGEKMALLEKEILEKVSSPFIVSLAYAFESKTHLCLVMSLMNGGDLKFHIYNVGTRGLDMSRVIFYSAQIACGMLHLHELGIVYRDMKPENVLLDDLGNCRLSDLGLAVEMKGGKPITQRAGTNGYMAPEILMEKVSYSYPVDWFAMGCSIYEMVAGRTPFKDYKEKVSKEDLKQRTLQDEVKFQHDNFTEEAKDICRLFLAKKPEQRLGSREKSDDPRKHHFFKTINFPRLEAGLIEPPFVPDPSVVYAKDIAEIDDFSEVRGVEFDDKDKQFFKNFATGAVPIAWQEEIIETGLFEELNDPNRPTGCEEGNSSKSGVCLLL
The note with it: GRK7, 10 uM; for remaining activity at 10 µM: read-out: % Enzyme Activity (relative to DMSO controls).

Assay [4] addresses T4, 382 unique human kinases (Homo sapiens, UniProt Q99986).
T4 construct: purchased Reaction Biology (HotSpot contract assay)
T4 sequence (Q99986 1-396): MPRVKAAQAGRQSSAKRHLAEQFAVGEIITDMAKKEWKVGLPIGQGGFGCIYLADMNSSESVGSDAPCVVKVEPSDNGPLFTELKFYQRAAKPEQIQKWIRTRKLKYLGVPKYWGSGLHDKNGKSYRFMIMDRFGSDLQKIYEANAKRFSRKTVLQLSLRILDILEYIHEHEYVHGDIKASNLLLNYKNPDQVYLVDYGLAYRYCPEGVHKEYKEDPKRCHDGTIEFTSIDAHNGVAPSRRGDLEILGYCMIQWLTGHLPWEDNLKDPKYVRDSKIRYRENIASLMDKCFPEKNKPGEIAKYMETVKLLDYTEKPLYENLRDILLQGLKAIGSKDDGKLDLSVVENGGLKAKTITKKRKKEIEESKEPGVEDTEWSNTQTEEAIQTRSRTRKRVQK
To be noted: VRK1, 10 uM; for remaining activity at 10 µM: read-out: % Enzyme Activity (relative to DMSO controls).

Assay [5] concerns the target T5, 382 unique human kinases (Homo sapiens, UniProt O94806).
T5 construct: purchased Reaction Biology (HotSpot contract assay)
T5 sequence (O94806 1-890): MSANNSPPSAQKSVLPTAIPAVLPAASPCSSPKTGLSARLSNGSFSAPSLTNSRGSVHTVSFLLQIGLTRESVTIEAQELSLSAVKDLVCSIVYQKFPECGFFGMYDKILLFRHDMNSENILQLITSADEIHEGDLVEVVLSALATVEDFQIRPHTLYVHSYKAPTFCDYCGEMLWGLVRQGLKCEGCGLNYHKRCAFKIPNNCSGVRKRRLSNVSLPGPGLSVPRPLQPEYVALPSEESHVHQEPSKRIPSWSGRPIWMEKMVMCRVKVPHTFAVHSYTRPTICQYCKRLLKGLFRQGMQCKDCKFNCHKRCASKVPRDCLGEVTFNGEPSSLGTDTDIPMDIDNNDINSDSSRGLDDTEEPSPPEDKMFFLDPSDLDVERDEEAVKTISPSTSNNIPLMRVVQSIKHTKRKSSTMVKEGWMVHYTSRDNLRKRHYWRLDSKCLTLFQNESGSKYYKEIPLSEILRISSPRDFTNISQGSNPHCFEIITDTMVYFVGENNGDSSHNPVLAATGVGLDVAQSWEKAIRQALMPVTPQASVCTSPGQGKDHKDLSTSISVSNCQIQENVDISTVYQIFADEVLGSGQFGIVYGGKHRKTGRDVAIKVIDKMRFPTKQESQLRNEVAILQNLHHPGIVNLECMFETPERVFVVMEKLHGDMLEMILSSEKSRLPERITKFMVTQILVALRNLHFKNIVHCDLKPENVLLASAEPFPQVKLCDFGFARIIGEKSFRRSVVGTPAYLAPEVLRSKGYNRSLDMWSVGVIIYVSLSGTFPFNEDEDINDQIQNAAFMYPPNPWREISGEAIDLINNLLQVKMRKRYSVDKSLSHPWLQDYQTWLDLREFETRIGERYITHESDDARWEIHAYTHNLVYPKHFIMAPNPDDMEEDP
To be noted: PKCnu/PRKD3, [ATP] 30 µM, compound 10 uM; for remaining activity at 10 µM: read-out: % Enzyme Activity (relative to DMSO controls).

Assay [6] deals with T6, 382 unique human kinases (Homo sapiens, UniProt P42684).
T6 construct: purchased Reaction Biology (HotSpot contract assay)
T6 sequence (P42684 whole entry): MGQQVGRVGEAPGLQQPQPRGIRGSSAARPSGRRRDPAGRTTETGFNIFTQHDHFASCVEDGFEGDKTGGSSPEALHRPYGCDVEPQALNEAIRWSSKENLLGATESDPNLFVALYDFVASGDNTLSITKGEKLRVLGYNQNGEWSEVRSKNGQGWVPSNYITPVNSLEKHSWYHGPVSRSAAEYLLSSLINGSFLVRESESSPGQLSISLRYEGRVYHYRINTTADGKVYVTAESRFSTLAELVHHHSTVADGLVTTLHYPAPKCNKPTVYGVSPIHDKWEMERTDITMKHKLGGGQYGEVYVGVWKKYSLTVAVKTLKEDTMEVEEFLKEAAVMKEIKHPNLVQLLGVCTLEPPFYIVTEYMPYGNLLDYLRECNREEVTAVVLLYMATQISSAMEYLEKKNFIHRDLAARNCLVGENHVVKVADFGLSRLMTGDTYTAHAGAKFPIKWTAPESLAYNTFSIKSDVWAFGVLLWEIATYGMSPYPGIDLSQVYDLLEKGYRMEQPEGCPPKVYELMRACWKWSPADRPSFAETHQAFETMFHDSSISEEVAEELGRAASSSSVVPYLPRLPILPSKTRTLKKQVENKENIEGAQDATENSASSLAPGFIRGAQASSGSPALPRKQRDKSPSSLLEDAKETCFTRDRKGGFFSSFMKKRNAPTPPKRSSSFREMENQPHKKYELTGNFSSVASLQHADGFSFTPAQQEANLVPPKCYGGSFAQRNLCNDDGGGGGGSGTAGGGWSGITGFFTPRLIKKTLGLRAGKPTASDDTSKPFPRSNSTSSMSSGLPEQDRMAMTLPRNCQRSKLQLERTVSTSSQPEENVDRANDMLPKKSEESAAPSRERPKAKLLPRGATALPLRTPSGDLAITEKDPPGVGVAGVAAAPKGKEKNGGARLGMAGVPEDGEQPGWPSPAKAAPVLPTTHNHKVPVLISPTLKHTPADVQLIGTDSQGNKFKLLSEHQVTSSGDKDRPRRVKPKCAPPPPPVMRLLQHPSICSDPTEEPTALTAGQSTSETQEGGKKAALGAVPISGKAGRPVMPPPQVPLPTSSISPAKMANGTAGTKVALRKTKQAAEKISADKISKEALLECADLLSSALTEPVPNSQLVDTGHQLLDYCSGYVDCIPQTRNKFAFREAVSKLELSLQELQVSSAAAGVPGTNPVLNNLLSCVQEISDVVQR
To be noted: ABL2/ARG, [ATP] 30 µM.

Assay [7] concerns the target T7, 382 unique human kinases (Homo sapiens, UniProt P68400).
T7 construct: purchased Reaction Biology (HotSpot contract assay)
The note with it: CK2a, 10 uM; for remaining activity at 10 µM: read-out: % Enzyme Activity (relative to DMSO controls).

Assay [8] deals with T8, 382 unique human kinases (Homo sapiens, UniProt Q96KB5).
T8 construct: purchased Reaction Biology (HotSpot contract assay)
T8 sequence (Q96KB5 1-322): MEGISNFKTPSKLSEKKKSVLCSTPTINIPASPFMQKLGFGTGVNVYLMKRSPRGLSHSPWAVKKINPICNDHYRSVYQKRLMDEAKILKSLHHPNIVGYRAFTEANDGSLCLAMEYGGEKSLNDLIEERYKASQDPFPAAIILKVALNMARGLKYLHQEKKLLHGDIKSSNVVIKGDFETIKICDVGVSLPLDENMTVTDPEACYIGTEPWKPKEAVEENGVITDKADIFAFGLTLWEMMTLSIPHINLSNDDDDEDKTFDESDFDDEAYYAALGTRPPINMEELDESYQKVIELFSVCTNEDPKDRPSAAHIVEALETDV
To be noted: PBK/TOPK, 10 uM; for remaining activity at 10 µM: read-out: % Enzyme Activity (relative to DMSO controls).

Assay [9] deals with T9, 382 unique human kinases (Homo sapiens, UniProt Q96SB4).
T9 construct: purchased Reaction Biology (HotSpot contract assay)
T9 sequence (Q96SB4 whole entry): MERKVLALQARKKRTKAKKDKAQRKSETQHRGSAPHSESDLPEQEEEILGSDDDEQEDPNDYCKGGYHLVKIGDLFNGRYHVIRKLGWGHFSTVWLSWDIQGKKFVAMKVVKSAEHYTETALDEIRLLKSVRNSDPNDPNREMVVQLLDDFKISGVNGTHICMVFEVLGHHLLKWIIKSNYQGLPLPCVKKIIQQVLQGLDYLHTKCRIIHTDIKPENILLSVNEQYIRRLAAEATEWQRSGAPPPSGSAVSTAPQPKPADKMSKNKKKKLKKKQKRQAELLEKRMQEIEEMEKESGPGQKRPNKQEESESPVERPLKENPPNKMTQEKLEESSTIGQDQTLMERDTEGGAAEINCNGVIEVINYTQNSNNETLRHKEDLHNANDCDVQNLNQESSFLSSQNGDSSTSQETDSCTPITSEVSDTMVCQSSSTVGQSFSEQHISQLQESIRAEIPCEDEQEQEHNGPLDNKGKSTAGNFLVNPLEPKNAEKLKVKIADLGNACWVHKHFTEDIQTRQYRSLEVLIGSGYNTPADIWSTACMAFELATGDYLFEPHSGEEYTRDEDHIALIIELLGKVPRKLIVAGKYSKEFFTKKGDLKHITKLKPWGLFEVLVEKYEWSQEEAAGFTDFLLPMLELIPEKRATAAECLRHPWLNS
To be noted: SRPK1, 10 uM; for remaining activity at 10 µM: read-out: % Enzyme Activity (relative to DMSO controls).

The target in assay [10] is T10, 382 unique human kinases (Homo sapiens, UniProt Q9UM73, C1156Y).
T10 construct: purchased Reaction Biology (HotSpot contract assay)
T10 sequence (Q9UM73 19-1620 C1156Y): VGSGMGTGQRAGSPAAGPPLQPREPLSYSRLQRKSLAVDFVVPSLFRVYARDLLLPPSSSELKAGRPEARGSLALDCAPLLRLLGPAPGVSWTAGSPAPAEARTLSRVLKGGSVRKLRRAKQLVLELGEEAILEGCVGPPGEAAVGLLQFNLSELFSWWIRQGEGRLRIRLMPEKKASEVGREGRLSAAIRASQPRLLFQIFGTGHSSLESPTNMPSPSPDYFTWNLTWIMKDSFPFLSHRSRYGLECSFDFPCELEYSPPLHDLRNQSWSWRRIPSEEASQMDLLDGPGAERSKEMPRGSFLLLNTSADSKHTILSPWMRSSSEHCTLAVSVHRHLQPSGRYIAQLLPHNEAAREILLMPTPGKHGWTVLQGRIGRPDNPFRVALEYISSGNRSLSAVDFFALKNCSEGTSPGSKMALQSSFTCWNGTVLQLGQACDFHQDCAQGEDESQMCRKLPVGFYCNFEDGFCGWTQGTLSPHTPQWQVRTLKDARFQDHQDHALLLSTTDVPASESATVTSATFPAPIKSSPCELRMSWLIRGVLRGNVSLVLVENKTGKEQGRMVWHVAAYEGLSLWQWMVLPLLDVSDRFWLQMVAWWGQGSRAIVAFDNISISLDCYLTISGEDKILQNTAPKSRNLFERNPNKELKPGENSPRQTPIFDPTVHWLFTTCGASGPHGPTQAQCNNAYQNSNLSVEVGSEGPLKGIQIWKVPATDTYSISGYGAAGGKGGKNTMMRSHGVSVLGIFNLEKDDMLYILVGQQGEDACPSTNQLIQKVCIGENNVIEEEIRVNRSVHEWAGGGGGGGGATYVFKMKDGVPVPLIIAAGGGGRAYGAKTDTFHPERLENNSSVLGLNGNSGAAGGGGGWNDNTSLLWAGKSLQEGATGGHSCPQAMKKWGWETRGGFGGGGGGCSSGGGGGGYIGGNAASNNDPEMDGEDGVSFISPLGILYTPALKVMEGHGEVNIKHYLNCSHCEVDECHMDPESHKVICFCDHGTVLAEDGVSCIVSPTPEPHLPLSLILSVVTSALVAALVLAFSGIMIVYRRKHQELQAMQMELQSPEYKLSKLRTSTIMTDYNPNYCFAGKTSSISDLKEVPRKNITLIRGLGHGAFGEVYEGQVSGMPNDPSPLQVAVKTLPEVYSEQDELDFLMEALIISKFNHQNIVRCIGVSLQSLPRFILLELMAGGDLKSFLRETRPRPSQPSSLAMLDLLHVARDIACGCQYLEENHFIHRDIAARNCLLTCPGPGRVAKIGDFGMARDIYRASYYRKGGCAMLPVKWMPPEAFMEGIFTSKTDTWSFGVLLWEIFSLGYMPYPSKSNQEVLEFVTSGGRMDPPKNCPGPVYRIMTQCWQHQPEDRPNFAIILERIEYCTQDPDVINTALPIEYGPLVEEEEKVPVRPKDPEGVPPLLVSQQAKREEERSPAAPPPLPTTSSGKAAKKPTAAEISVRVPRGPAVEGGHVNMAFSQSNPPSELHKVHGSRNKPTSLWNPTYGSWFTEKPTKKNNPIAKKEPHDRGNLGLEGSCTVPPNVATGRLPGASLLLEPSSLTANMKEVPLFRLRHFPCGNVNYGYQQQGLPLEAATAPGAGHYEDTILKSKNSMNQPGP
To be noted: ALK (C1156Y), [ATP] 5 µM, compound 10 uM; for remaining activity at 10 µM: read-out: % Enzyme Activity (relative to DMSO controls).

Where [11] appears, read: compound 10 uM, read-out: % Enzyme Activity (relative to DMSO controls).

T1 sequence (O00311 whole entry): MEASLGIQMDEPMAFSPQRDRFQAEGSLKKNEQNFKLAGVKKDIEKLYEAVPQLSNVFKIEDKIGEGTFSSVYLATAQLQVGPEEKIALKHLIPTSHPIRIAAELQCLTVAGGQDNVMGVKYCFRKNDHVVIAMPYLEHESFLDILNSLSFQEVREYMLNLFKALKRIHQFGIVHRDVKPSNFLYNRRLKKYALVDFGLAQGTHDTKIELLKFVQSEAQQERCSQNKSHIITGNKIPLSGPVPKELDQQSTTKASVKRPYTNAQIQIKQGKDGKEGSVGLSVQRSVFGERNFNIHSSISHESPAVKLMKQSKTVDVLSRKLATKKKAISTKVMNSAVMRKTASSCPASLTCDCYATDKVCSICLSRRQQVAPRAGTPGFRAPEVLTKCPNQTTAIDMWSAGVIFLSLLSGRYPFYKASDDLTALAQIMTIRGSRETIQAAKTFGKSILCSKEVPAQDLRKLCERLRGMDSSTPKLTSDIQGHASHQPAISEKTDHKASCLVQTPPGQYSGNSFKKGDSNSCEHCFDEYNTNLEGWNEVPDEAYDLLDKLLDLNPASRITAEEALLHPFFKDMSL
T7 sequence (P68400 whole entry): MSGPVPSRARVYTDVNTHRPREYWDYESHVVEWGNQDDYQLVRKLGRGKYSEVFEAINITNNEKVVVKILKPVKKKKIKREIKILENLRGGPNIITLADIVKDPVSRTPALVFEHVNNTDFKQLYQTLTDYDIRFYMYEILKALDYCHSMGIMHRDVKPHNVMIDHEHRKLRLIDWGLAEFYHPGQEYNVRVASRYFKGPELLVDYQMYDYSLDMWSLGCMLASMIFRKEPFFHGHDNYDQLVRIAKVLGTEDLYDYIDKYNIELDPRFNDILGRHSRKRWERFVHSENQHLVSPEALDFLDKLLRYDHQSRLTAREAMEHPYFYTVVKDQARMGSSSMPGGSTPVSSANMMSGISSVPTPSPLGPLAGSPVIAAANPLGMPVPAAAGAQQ

With `CC(C)c1cc(-c2n[nH]c(=O)n2-c2ccc3c(ccn3C)c2)c(O)cc1O` [Ganetespib (STA9090)], the remaining activity at 10 µM on 382 unique human kinases [1] stood at 85.9%; at 382 unique human kinases [2] it was 67.9%; on 382 unique human kinases [3] it was 75.4%; at 382 unique human kinases [4], 75.3%.

For the molecule `CC(C)c1cc(-c2n[nH]c(=O)n2-c2ccc3c(ccn3C)c2)c(O)cc1O` [Ganetespib], the remaining activity at 10 µM at 382 unique human kinases [5] worked out at 54.7%; at 382 unique human kinases [6] (setting [11]) it was 1.12%; at 382 unique human kinases [7], 101%; at 382 unique human kinases [8] it was 93.8%; at 382 unique human kinases [9], 90.7%; at 382 unique human kinases [10], 20%. Also, the remaining activity at 1 µM at 382 unique human kinases [6] (compound 1 uM, read-out: % Enzyme Activity (relative to DMSO controls)) came out at 12.9%.

For the molecule `CCNC(=O)c1noc(-c2cc(C(C)C)c(O)cc2O)c1-c1ccc(CN2CCOCC2)cc1` [Luminespib (AUY-922)], the “% Enzyme Activity (relative to DMSO controls)” value on 382 unique human kinases [1] turned out to be 105.45%; at 382 unique human kinases [2] it was 98.51%; at 382 unique human kinases [3] it was 95.66%; at 382 unique human kinases [4], 84.23%. The remaining activity at 10 µM on 382 unique human kinases [1] was 107%; at 382 unique human kinases [2], 102%; on 382 unique human kinases [3], 96.7%; on 382 unique human kinases [4], 87%.

Regarding `CCNC(=O)c1noc(-c2cc(C(C)C)c(O)cc2O)c1-c1ccc(CN2CCOCC2)cc1` [Luminespib], the “% Enzyme Activity (relative to DMSO controls)” value is recorded as 116.94% on 382 unique human kinases [5]; 7.82% on 382 unique human kinases [6] (compound 10 uM); 112.96% on 382 unique human kinases [7]; 96.61% at 382 unique human kinases [8]; 101.35% at 382 unique human kinases [9]; 91.42% at 382 unique human kinases [10]. Moreover, the remaining activity at 10 µM is 120% on 382 unique human kinases [5]; 8.16% on 382 unique human kinases [6] (setting [11]); 117% on 382 unique human kinases [7]; 98.3% on 382 unique human kinases [8]; 101% at 382 unique human kinases [9]; 93.3% at 382 unique human kinases [10].
